Experiment [1] deals with Mitogen-activated protein kinase kinase kinase 3 (Homo sapiens) (UniProt Q99759). The note with it: Compound concentration 1000.0 nM.
The target of experiment [2] is Casein kinase II subunit alpha (Homo sapiens) (UniProt P68400). The settings on record: Compound concentration 1000.0 nM.
The target of experiment [3] is RAC-alpha serine/threonine-protein kinase (Homo sapiens) (UniProt P31749). The note with it: Compound concentration 1000.0 nM.
Experiment [4] deals with 3-phosphoinositide-dependent protein kinase 1 (Homo sapiens) (UniProt O15530). The settings on record: Compound concentration 1000.0 nM.
The subject of experiment [5] is Epidermal growth factor receptor (Homo sapiens), P00533 [L861Q]. The settings on record: Compound concentration 1000.0 nM.
Experiment [6] has as its target Sodium-dependent dopamine transporter (Homo sapiens) (UniProt Q01959). The note with it: Compound concentration 10.0 uM.
The target of experiment [7] is Platelet-derived growth factor receptor alpha (Homo sapiens) (UniProt P16234). The settings on record: Compound concentration 1000.0 nM.
Platelet-derived growth factor receptor alpha (Homo sapiens), sequence (P16234 whole entry): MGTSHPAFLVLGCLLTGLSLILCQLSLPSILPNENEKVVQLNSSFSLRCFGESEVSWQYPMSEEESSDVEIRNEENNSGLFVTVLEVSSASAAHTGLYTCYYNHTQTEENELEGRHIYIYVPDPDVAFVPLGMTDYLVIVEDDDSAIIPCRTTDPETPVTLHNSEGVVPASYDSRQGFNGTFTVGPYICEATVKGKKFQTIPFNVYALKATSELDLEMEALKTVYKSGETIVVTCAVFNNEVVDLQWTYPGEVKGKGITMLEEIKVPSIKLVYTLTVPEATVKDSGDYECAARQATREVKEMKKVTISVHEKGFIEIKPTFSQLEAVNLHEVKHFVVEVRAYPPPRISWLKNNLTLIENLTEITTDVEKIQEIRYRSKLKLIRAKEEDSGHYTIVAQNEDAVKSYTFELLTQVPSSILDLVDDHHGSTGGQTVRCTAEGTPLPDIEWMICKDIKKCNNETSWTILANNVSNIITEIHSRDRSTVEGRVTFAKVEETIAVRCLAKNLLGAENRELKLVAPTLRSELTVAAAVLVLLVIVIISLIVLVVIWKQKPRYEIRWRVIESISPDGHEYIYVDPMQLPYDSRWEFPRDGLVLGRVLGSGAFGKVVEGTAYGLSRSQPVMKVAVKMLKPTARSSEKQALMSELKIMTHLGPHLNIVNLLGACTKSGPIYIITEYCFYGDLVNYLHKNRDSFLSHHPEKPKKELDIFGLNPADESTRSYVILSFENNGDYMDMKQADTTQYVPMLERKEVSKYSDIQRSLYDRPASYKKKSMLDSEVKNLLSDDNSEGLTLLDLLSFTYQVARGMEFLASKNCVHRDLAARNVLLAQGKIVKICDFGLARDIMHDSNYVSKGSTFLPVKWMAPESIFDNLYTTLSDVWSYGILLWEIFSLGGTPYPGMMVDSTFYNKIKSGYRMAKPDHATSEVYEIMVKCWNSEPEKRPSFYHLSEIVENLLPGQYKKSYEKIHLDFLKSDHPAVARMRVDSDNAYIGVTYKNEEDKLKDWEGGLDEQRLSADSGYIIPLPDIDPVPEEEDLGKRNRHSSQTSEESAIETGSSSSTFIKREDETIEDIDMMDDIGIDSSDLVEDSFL
The target of experiment [8] is D(3) dopamine receptor (Homo sapiens) (UniProt P35462). The settings on record: Compound concentration 10.0 uM.
D(3) dopamine receptor (Homo sapiens), sequence (P35462 whole entry): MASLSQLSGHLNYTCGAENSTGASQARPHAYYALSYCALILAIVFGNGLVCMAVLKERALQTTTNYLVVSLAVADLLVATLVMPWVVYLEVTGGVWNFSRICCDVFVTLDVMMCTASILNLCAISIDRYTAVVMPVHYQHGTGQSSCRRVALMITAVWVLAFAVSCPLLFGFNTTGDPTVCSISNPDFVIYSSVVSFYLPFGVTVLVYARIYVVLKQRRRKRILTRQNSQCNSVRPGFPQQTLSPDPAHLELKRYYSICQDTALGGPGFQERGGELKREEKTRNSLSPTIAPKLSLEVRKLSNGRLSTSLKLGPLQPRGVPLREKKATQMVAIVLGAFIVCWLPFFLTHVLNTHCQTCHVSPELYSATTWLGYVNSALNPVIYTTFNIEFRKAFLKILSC
Experiment [9] concerns the target Aurora kinase A (Homo sapiens) (UniProt O14965). The note with it: Compound concentration 1000.0 nM.
For experiment [10], the target named is Receptor-interacting serine/threonine-protein kinase 2 (Homo sapiens) (UniProt O43353). The settings on record: Compound concentration 1000.0 nM.
The target of experiment [11] is Tyrosine-protein kinase Fes/Fps (Homo sapiens) (UniProt P07332). The settings on record: Compound concentration 1000.0 nM.
Tyrosine-protein kinase Fes/Fps (Homo sapiens), sequence (P07332 whole entry): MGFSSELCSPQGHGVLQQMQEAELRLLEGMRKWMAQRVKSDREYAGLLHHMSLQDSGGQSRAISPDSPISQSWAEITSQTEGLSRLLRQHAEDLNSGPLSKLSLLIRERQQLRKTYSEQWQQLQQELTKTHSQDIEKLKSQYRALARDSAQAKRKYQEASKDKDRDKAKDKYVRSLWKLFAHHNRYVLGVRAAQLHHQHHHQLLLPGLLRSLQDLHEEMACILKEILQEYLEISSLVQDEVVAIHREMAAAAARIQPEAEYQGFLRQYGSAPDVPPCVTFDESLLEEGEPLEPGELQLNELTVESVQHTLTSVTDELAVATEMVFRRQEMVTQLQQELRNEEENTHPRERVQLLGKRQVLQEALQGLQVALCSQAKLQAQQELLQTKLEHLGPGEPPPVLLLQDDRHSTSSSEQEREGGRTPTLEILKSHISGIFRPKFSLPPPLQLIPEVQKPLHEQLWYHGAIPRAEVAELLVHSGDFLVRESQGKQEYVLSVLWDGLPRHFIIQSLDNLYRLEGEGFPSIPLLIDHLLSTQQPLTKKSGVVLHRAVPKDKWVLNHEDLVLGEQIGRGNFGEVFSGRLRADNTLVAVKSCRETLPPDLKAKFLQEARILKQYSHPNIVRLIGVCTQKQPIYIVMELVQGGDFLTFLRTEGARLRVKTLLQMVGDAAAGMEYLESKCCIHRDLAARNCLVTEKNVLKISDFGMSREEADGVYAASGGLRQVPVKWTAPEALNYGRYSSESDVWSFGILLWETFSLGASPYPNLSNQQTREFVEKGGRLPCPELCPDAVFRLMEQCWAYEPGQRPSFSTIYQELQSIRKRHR
The target of experiment [12] is T1, G protein-coupled receptor (Rattus norvegicus, UniProt Q9WU09). Briefly: CHO-based cAMP assay (rat). On the technique in general: Changes in cAMP serve as a functional read-out for many G protein-coupled receptors.
T1 sequence (Q9WU09 whole entry): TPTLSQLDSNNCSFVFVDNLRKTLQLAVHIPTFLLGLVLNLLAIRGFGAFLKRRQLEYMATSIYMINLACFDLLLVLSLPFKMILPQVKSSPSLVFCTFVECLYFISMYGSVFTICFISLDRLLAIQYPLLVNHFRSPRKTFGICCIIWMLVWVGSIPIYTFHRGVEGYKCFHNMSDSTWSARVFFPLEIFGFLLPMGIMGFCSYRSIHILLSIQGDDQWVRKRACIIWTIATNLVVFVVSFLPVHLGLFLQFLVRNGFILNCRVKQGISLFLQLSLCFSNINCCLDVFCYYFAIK
Experiment [13] relates to Epidermal growth factor receptor (Homo sapiens), P00533 [UNDEFINED MUTATION]. The settings on record: Compound concentration 1000.0 nM.
Experiment [14] concerns the target Calcium-dependent protein kinase 1 (Plasmodium falciparum) (UniProt P62344). The settings on record: Compound concentration 1000.0 nM.
The target of experiment [15] is Serine/threonine-protein kinase B-raf (Homo sapiens) (UniProt P15056). The note with it: Compound concentration 1000.0 nM.
For experiment [16], the target named is 5-hydroxytryptamine receptor 1A (Homo sapiens) (UniProt P08908). The note with it: Compound concentration 10.0 uM.
Experiment [17] deals with Muscarinic acetylcholine receptor M3 (Homo sapiens) (UniProt P20309). The settings on record: Compound concentration 10.0 uM.
Experiment [18] has as its target Epidermal growth factor receptor (Homo sapiens) (UniProt P00533). The settings on record: Compound concentration 1000.0 nM.
The target of experiment [19] is T1, G protein-coupled receptor. Briefly: cAMP increase in rat primary cultured striatal neurons.
Experiment [20] concerns ALK tyrosine kinase receptor (Homo sapiens), Q9UM73 [L1196M]. The settings on record: Compound concentration 1000.0 nM.
In experiment [21] the target is Mitogen-activated protein kinase 15 (Homo sapiens) (UniProt Q8TD08). The settings on record: Compound concentration 1000.0 nM.
Experiment [22] deals with G-protein coupled receptor 52 (Homo sapiens, UniProt Q9Y2T5). Briefly: CHO-based cAMP assay (human). In kind it is functional.
G-protein coupled receptor 52, sequence (Q9Y2T5 whole entry): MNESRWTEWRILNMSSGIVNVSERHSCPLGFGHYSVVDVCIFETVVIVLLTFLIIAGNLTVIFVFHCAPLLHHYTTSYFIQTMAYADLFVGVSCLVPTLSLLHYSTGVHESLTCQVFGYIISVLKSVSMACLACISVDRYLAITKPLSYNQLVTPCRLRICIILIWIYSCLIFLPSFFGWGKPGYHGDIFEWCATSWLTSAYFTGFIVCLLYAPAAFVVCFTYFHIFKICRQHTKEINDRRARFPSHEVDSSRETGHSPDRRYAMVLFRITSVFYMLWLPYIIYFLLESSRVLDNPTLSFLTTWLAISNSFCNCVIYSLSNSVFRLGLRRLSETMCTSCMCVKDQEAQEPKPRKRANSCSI

Active and inactive are the calls of the source. No cut-off for these calls is given here. Bounds are passed on as bounds.

RAC-alpha serine/threonine-protein kinase (Homo sapiens), sequence (P31749 whole entry): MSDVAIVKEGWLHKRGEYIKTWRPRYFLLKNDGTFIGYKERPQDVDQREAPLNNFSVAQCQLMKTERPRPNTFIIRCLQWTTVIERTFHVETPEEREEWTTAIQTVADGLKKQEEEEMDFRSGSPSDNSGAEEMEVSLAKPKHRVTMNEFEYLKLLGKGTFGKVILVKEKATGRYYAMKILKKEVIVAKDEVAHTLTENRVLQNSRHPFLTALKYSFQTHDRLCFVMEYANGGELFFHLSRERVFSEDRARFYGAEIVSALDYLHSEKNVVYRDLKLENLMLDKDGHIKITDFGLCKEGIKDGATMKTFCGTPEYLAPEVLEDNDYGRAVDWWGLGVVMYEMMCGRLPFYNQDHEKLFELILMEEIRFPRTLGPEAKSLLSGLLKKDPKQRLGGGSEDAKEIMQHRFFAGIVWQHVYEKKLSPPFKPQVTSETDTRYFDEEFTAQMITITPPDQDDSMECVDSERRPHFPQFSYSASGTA
Calcium-dependent protein kinase 1 (Plasmodium falciparum), sequence (P62344 2-524 limits assumed): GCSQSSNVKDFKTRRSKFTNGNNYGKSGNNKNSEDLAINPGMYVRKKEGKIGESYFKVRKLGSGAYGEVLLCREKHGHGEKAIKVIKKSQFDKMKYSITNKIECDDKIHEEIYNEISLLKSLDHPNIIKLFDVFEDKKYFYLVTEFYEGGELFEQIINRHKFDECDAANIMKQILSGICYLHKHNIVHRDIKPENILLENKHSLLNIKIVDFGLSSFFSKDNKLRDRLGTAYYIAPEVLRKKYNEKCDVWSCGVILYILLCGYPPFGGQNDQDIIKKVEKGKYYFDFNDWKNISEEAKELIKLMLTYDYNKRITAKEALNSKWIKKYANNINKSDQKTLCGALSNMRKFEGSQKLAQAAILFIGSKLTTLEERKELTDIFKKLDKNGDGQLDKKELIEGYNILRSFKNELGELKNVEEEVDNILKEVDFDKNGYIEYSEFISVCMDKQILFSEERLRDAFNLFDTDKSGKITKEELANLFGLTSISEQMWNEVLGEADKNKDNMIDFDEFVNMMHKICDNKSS
Aurora kinase A (Homo sapiens), sequence (O14965 whole entry): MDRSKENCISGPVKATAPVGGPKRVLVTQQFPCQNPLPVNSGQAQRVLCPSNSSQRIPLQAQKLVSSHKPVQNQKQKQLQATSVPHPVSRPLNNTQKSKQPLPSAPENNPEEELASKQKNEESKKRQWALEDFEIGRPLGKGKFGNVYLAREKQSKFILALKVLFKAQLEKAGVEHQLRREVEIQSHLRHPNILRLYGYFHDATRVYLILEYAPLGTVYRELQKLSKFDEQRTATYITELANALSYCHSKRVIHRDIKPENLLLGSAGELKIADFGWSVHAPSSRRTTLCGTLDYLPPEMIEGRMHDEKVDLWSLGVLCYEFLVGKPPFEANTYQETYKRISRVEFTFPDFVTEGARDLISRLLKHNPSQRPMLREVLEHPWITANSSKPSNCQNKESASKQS
Mitogen-activated protein kinase kinase kinase 3 (Homo sapiens), sequence (Q99759 whole entry): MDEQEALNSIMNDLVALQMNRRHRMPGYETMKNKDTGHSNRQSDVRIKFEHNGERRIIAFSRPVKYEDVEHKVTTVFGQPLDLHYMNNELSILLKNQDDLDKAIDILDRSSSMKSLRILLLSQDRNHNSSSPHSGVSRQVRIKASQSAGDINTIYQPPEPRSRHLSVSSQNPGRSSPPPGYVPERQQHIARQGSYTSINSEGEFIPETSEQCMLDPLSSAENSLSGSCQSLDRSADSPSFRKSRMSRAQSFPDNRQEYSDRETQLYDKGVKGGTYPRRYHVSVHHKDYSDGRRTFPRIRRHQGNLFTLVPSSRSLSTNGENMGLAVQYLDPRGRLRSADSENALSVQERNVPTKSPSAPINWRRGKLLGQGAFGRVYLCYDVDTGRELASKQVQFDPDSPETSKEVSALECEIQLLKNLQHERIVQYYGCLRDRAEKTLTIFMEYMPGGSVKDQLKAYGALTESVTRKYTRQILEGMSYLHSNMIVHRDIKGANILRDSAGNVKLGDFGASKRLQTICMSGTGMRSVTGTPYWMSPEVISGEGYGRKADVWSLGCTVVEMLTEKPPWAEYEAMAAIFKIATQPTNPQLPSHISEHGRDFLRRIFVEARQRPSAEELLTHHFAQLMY

What is called inhibition is the change of the read-out against control, counted positive when it falls. By EC50 is commonly meant the concentration that produces a half-maximal response. In the case of `Cc1cc(-n2nc(Cc3cc(F)cc(C(F)(F)F)c3)nc2C)ccc1C(N)=O` [TP-024], the residual activity is 94% in [1]; 100% in experiment [2]; 94% in experiment [3]; 100% in [4]; 100% in experiment [5]; 100% in [7]. In addition, the residual activity is 99% in experiment [9]; 100% in [10]; 100% in [11]; 100% in experiment [13]; 100% in experiment [14]; 86% in [15]. The residual activity in experiment [18] was 100%; in [20], 100%; in experiment [21], 95%. For the same compound, the inhibition in experiment [6] is 7.33%; in experiment [8], 3.4%; in experiment [16], -4.42%; in experiment [17] it was 1.72%. Besides, the EC50 in experiment [12] is 134 nM (active); in experiment [19], 151 nM (active).

Take `Cc1nc(Cc2cccc(C(F)(F)F)c2)sc1-c1ccc(C(N)=O)nc1` [TP-024n]: the residual activity is 97% in experiment [1]; 100% in experiment [2]; 82% in experiment [3]; 82% in experiment [4]; 100% in experiment [5]; 88% in experiment [7]. Also, the residual activity in [9] was 100%; in experiment [10], 100%; in experiment [11] it was 99%; in experiment [13] it was 100%; in [14] it was 100%; in [15], 73%. Also, the residual activity in experiment [18], in experiment [20] and in experiment [21] was 100% each time. Moreover, the inhibition in experiment [8] was 6.21%; in [16] it was -2.04%. For the same compound, the concentration giving a half-maximal response (EC50) in experiment [22] was > 1000 nM (not active).

The values are drawn from ChEMBL document CHEMBL4507305, “Data for DCP probe TP-024” (2021).
